Data reported in PubChem BioAssay (NCI).
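Each compound was tested at five concentrations against cells in 96-well plates for 48 hours. TGI: total growth inhibition.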

Experiments:
Assay in all cases: inhibition of tumour cell growth, NCI panel, 48 h
[1] = system: NCI-H226 lung
[2] = system: M14 melanoma
[3] = system: OVCAR-4 ovarian
[4] = system: K-562 leukemia
[5] = system: DLD-1 colon
[6] = system: OVCAR-3 ovarian
[7] = system: KM12 colon
[8] = system: UACC-62 melanoma
[9] = system: HCT-15 colon
[10] = system: SK-OV-3 ovarian
[11] = system: DMS 273 small cell lung
[12] = system: U251 CNS
[13] = system: MCF7 breast
[14] = system: NCI-H522 lung
[15] = system: SF-295 CNS
[16] = system: RXF 393 renal
[17] = system: MDA-MB-231 breast
[18] = system: SK-MEL-2 melanoma
[19] = system: HOP-62 NSCLC
[20] = system: OVCAR-5 ovarian
[21] = system: MDA-MB-435
[22] = system: DMS 114 small cell lung
[23] = system: IGROV1 ovarian
[24] = system: SW-620 colon
[25] = system: COLO 205 colon
[26] = system: KM20L2 colon
[27] = system: NCI/ADR-RES ovarian
[28] = system: OVCAR-8 ovarian
[29] = system: SNB-19 CNS
[30] = system: SK-MEL-5 melanoma
[31] = system: T-47D breast
[32] = system: PC-3 prostate
[33] = system: LOX IMVI melanoma
[34] = system: SR leukemia
[35] = system: HL-60(TB) leukemia
[36] = system: CCRF-CEM leukemia
[37] = system: A498 renal
[38] = system: UO-31 renal
[39] = system: ACHN renal
[40] = system: SNB-78 CNS
[41] = system: BT-549 breast
[42] = system: A549 NSCLC
[43] = system: LXFL 529 NSCLC
[44] = system: HCC-2998 colon
[45] = system: XF 498 CNS
[46] = system: MDA-N
[47] = system: HOP-18 NSCLC
[48] = system: SNB-75 CNS
[49] = system: M19-MEL melanoma
[50] = system: SK-MEL-28 melanoma
[51] = system: SF-268 CNS
[52] = system: MOLT-4 leukemia
[53] = system: TK-10 renal
[54] = system: EKVX NSCLC
[55] = system: 786-0 renal
[56] = system: SF-539 CNS
[57] = system: NCI-H460 lung
[58] = system: HT29 colon
[59] = system: HS 578T breast
[60] = system: HCT-116 colon
[61] = system: MALME-3M melanoma
[62] = system: DU-145 prostate
[63] = system: UACC-257 melanoma
[64] = system: RPMI-8226 leukemia
[65] = system: SN12C renal
[66] = system: NCI-H23 lung
[67] = system: HOP-92 NSCLC
[68] = system: RXF-631 renal

Q: With `CCC1(OC(=O)CN2CCN(CCO)CC2)C(=O)OCc2c1cc1n(c2=O)Cc2cc3ccccc3nc2-1` (stereo not given) as the molecule, how does the TGI [1] read?
A: 2.2 µM

Q: What about the TGI [2] of the same molecule?
A: 1.92 µM

Q: And the TGI [3]?
A: 17 µM

Q: What about the TGI [4] of the same molecule?
A: 26.2 µM

Q: What about the TGI [5] of the same molecule?
A: > 100 µM

Q: What about the TGI [6] of the same molecule?
A: 3.81 µM

Q: And the TGI [7]?
A: 4.49 µM

Q: What about the TGI [8] of the same molecule?
A: 1.05 µM

Q: And the TGI [9]?
A: 26.2 µM

Q: What about the TGI [10] of the same molecule?
A: 14.7 µM

Q: And the TGI [11]?
A: 0.367 µM

Q: What about the TGI [12] of the same molecule?
A: 2.41 µM

Q: What about the TGI [13] of the same molecule?
A: 2.18 µM

Q: And the TGI [14]?
A: 3.05 µM

Q: What about the TGI [15] of the same molecule?
A: 15.6 µM

Q: What about the TGI [16] of the same molecule?
A: 3.27 µM

Q: And the TGI [17]?
A: 65.7 µM

Q: And the TGI [18]?
A: 9.52 µM

Q: What about the TGI [19] of the same molecule?
A: 4.55 µM

Q: What about the TGI [20] of the same molecule?
A: 7.6 µM

Q: And the TGI [21]?
A: 4.38 µM

Q: And the TGI [22]?
A: 16.8 µM

Q: And the TGI [23]?
A: 17.4 µM

Q: And the TGI [24]?
A: 10.3 µM

Q: What about the TGI [25] of the same molecule?
A: 15.5 µM

Q: And the TGI [26]?
A: 7.46 µM

Q: What about the TGI [27] of the same molecule?
A: 7.99 µM

Q: What about the TGI [28] of the same molecule?
A: 16 µM

Q: What about the TGI [29] of the same molecule?
A: 28.6 µM

Q: And the TGI [30]?
A: 1.15 µM

Q: What about the TGI [31] of the same molecule?
A: 4.92 µM

Q: What about the TGI [32] of the same molecule?
A: > 100 µM

Q: What about the TGI [33] of the same molecule?
A: 1.58 µM

Q: What about the TGI [34] of the same molecule?
A: 0.305 µM

Q: What about the TGI [35] of the same molecule?
A: 3.24 µM

Q: And the TGI [36]?
A: 0.451 µM

Q: And the TGI [37]?
A: 1.78 µM

Q: And the TGI [38]?
A: 0.851 µM

Q: What about the TGI [39] of the same molecule?
A: 1.52 µM

Q: And the TGI [40]?
A: > 100 µM

Q: What about the TGI [41] of the same molecule?
A: 20.4 µM

Q: And the TGI [42]?
A: 29.5 µM

Q: And the TGI [43]?
A: 21.4 µM

Q: What about the TGI [44] of the same molecule?
A: 6.29 µM

Q: What about the TGI [45] of the same molecule?
A: 14.2 µM

Q: What about the TGI [46] of the same molecule?
A: 13.1 µM

Q: And the TGI [47]?
A: 25.8 µM

Q: What about the TGI [48] of the same molecule?
A: 1.92 µM

Q: And the TGI [49]?
A: 6.99 µM

Q: What about the TGI [50] of the same molecule?
A: 39.2 µM

Q: What about the TGI [51] of the same molecule?
A: 13.2 µM

Q: What about the TGI [52] of the same molecule?
A: 1.59 µM

Q: What about the TGI [53] of the same molecule?
A: > 100 µM

Q: And the TGI [54]?
A: 55.9 µM

Q: What about the TGI [55] of the same molecule?
A: 2.53 µM

Q: What about the TGI [56] of the same molecule?
A: 1.73 µM

Q: What about the TGI [57] of the same molecule?
A: 0.971 µM

Q: And the TGI [58]?
A: 8.85 µM

Q: What about the TGI [59] of the same molecule?
A: > 85.8 µM

Q: And the TGI [60]?
A: 3.35 µM

Q: What about the TGI [61] of the same molecule?
A: 12 µM

Q: What about the TGI [62] of the same molecule?
A: 2.24 µM

Q: What about the TGI [63] of the same molecule?
A: 8.05 µM

Q: What about the TGI [64] of the same molecule?
A: 5.28 µM

Q: And the TGI [65]?
A: 29.8 µM

Q: What about the TGI [66] of the same molecule?
A: 2.43 µM

Q: And the TGI [67]?
A: 6.96 µM

Q: For `COc1ccc(/C=C2/CCCC/C2=N/O)cc1`, which TGI [2] is on record?
A: > 100 µM

Q: And the TGI [3]?
A: > 100 µM

Q: What about the TGI [5] of the same molecule?
A: > 100 µM

Q: What about the TGI [6] of the same molecule?
A: > 100 µM

Q: What about the TGI [7] of the same molecule?
A: > 100 µM

Q: And the TGI [8]?
A: > 100 µM

Q: And the TGI [9]?
A: > 100 µM

Q: And the TGI [10]?
A: > 100 µM

Q: And the TGI [11]?
A: > 100 µM

Q: What about the TGI [12] of the same molecule?
A: > 100 µM

Q: And the TGI [14]?
A: > 100 µM

Q: What about the TGI [15] of the same molecule?
A: > 100 µM

Q: What about the TGI [16] of the same molecule?
A: > 100 µM

Q: What about the TGI [18] of the same molecule?
A: > 100 µM

Q: And the TGI [19]?
A: > 100 µM

Q: What about the TGI [20] of the same molecule?
A: > 100 µM

Q: And the TGI [22]?
A: > 100 µM

Q: And the TGI [23]?
A: > 100 µM

Q: What about the TGI [24] of the same molecule?
A: > 100 µM

Q: What about the TGI [25] of the same molecule?
A: > 100 µM

Q: What about the TGI [26] of the same molecule?
A: > 100 µM

Q: And the TGI [28]?
A: > 100 µM

Q: And the TGI [29]?
A: > 100 µM

Q: What about the TGI [33] of the same molecule?
A: > 100 µM

Q: And the TGI [35]?
A: > 100 µM

Q: And the TGI [36]?
A: > 100 µM

Q: And the TGI [37]?
A: > 100 µM

Q: What about the TGI [38] of the same molecule?
A: > 100 µM

Q: What about the TGI [39] of the same molecule?
A: > 100 µM

Q: And the TGI [40]?
A: > 100 µM

Q: What about the TGI [42] of the same molecule?
A: > 100 µM

Q: What about the TGI [43] of the same molecule?
A: > 100 µM

Q: And the TGI [44]?
A: > 100 µM

Q: And the TGI [47]?
A: > 100 µM

Q: What about the TGI [48] of the same molecule?
A: > 100 µM

Q: And the TGI [49]?
A: > 100 µM

Q: And the TGI [50]?
A: > 100 µM

Q: What about the TGI [51] of the same molecule?
A: > 100 µM

Q: And the TGI [52]?
A: > 100 µM

Q: What about the TGI [53] of the same molecule?
A: > 100 µM

Q: And the TGI [54]?
A: > 100 µM

Q: What about the TGI [55] of the same molecule?
A: > 100 µM

Q: What about the TGI [56] of the same molecule?
A: > 100 µM

Q: What about the TGI [57] of the same molecule?
A: > 100 µM

Q: And the TGI [58]?
A: > 100 µM

Q: What about the TGI [60] of the same molecule?
A: > 100 µM

Q: And the TGI [61]?
A: > 100 µM

Q: What about the TGI [68] of the same molecule?
A: > 100 µM

Q: What about the TGI [63] of the same molecule?
A: > 100 µM

Q: And the TGI [64]?
A: > 100 µM

Q: And the TGI [65]?
A: > 100 µM

Q: What about the TGI [66] of the same molecule?
A: > 100 µM

Q: And the TGI [67]?
A: > 100 µM
